{"source": "paper PMC11566429", "about": "(Genes and Environment, 2024)", "key": {"[1]": {"test_system": "TA100, TA1535, TA98, TA1537, and WP2uvrA", "assay": "Ames test (preincubation method), five standard strains, overall judgement", "conditions": "for Ames test result (in words, text): presence and absence of S9 mix; for Ames test: presence and absence of rat liver S9 mix", "procedure": "The S9 mix (0.5 mL) consisted of 0.05 mL of the S9 fraction and 0.45 mL of a cofactor solution (Cofactor-1®; Oriental Yeast Co., Ltd.), and contained 8 mM MgCl2, 33 mM KCl, 5 mM glucose-6-phosphate, 4 mM NADPH, 4 mM NADH and 100 mM sodium phosphate (pH 7.4).\nFour strains of Salmonella typhimurium, TA100, TA1535, TA98, and TA1537 and one strain of Escherichia coli, WP2uvrA were used.\nAmes test was conducted using the preincubation method. […] For the tests carried out in the absence of S9 mix, 0.1 mL of the negative control (vehicle), test chemical solution at various concentrations, or positive control solution was added to a test tube, to which 0.5 mL of 100 mM sodium phosphate buffer (pH 7.4) and 0.1 mL of bacterial culture were added. For the tests carried out in the presence of the S9 mix, the S9 mix was added instead of the phosphate buffer. After mixing, the test tubes were preincubated at 37 °C for 20 min in a shaking water bath. After completion, the treatment mixture was immediately added and mixed with 2 mL of 0.05 mM L-histidine/0.05 mM biotin/0.05 mM L-tryptophan molten top agar and the content was poured onto a plate of minimal-glucose agar medium (Tesmedia®, Oriental Yeast). The plates were incubated at 37 °C for approximately 48 h and the revertant colonies that appeared were counted. The sign of the bacterial background lawn was examined as an indicator of cytotoxicity. In addition, the presence or absence of precipitates from the test chemicals was evaluated.\nMultiple tests (dose-finding, main, or confirmatory tests) were conducted. The dose-finding test for almost all the test chemicals was conducted with TA100 in the presence and absence of the S9 mix in a single plate per dose. The main test was conducted in duplicate with the five strains in the presence and absence of the S9 mix. […] Dimethyl sulfoxide (DMSO) was used as a negative control (vehicle).\nMutagenicity was evaluated according to the so-called “two-fold” rule for TA100, TA98, and WP2uvrA, or “three-fold” rule for TA1535 and TA1537 [19]. […] Historical negative control counts were also considered during the evaluation."}, "[2]": {"test_system": "TA100, TA98", "conditions": "cited from earlier work"}, "[3]": {"test_system": "TA100, TA1535, TA98, TA1537, TA97", "conditions": "TA100, TA1535, TA98, TA1537, TA97 (± S9) ref 16; cited from earlier work"}, "[4]": {"test_system": "TA100", "assay": "Ames test, mutagenic activity in TA100", "format": "cell-based, Salmonella typhimurium", "conditions": "maximum mutagenic activity", "text": "(§1) The maximum mutagenic activity (rev/mg) was used as an indicator of the magnitude of mutagenicity among those calculated according to the following equation from each representative experiment (main test or confirmatory test) for chemicals that were judged positive: Mutagenic activity (rev/mg) = (number of revertant colonies at each dose—number of revertant colonies for the negative control) / dose (mg)."}, "[5]": {"test_system": "TA98", "assay": "Ames test, mutagenic activity in TA98", "format": "cell-based, Salmonella typhimurium", "conditions": "maximum mutagenic activity", "text": "as §1"}, "[6]": {"test_system": "TA100, TA1535, TA98, TA1537, WP2uvrA", "conditions": "TA100, TA1535, TA98, TA1537, WP2uvrA (± S9) ref 9; cited from earlier work"}, "[7]": {"test_system": "TA100, TA98, TA102", "conditions": "TA100, TA98, TA102 (± S9) ref 7; cited from earlier work"}, "[8]": {"test_system": "TA100, TA1535, TA98, TA1537, TA1538", "conditions": "presence or absence of S9 mix not clearly indicated ref 7; cited from earlier work"}, "[9]": {"test_system": "WP2uvrA", "assay": "Ames test, mutagenic activity in WP2uvrA", "format": "cell-based, Escherichia coli", "conditions": "maximum mutagenic activity", "text": "as §1"}, "[10]": {"test_system": "TA1537", "format": "cell-based, Salmonella typhimurium", "conditions": "TA1537 -S9, maximum mutagenic activity", "text": "as §1"}}, "note": "Entries after “also recorded” stand apart in the source; their conditions may differ. Where two headings read alike, the source gives them in different places."}
{"smiles": "c1ccc2[nH]cnc2c1", "note": "[Benzimidazole]", "values": [{"measurement": "Ames test result (in words, text)", "setting": "[1]", "result": "not mutagenic"}, {"measurement": "Ames test result", "setting": "[2]; TA100, TA98 (-S9) ref 14", "result": "Non-mutagenic"}, {"measurement": "Ames test result", "setting": "[3]", "result": "Non-mutagenic"}]}
{"smiles": "c1cnc2[nH]ncc2c1", "note": "[Pyrazolo[3,4-b]pyridine]", "values": [{"measurement": "Ames test result (in words, text)", "setting": "[1]", "result": "non-mutagenic"}]}
{"smiles": "c1cnc2cnccc2c1", "note": "[1,7-Naphthyridine]", "values": [{"measurement": "Ames test result (in words, text)", "setting": "[1]", "result": "mutagenic in both TA100 and TA98"}, {"measurement": "Ames test result (in words, text)", "setting": "[1]; listed as 1,7-naphthyridine", "result": "mutagenic both in the presence and absence of the S9 mix"}, {"measurement": "Ames test", "setting": "[1]; quinoline analogues", "result": "++ (\"mutagenic (100-1000 rev/mg)\" in Ames test)"}, {"measurement": "Tester strains showing positive (mutagenic activity in rev/mg)", "setting": "[4]; TA100 +S9", "result": 255, "unit": "rev/mg"}, {"measurement": "Tester strains showing positive (mutagenic activity in rev/mg)", "setting": "[4]; TA100 -S9", "result": 40, "unit": "rev/mg"}, {"measurement": "Tester strains showing positive (mutagenic activity in rev/mg)", "setting": "[5]; TA98 +S9", "result": 24, "unit": "rev/mg"}, {"measurement": "Tester strains showing positive (mutagenic activity in rev/mg)", "setting": "[5]; TA98 -S9", "result": 12, "unit": "rev/mg"}]}
{"smiles": "c1cc2cnccc2cn1", "note": "[2,6-Naphthyridine]", "values": [{"measurement": "Ames test result (in words, text)", "setting": "[1]", "result": "non-mutagenic"}]}
{"smiles": "c1ccc2ncccc2c1", "note": "[Quinoline]", "values": [{"measurement": "Ames test result (in words, text)", "setting": "[1]", "result": "only mutagenic in TA100; also recorded: mutagenic only in the presence of the S9 mix"}, {"measurement": "Ames test", "setting": "[1]; quinoline analogues", "result": "+++ (\"mutagenic (>1000 revertants/mg)\" in Ames test)"}, {"measurement": "Ames test result", "setting": "[6]", "result": "Mutagenic (+ S9) in TA100, TA98, WP2uvrA"}]}
{"smiles": "c1ccc2nccnc2c1", "note": "[Quinoxaline]", "values": [{"measurement": "Ames test result (in words, text)", "setting": "[1]", "result": "non-mutagenic"}, {"measurement": "Ames test result", "setting": "[7]", "result": "Mutagenic (+ S9) in TA98"}, {"measurement": "Ames test result", "setting": "[8]", "result": "Non-mutagenic"}]}
{"smiles": "c1ccc2[nH]ncc2c1", "note": "[Indazole]", "values": [{"measurement": "Ames test", "setting": "[1]; indole analogues", "result": "+ (\"mutagenic (< 100 revertants/mg)\" in Ames test)"}, {"measurement": "Ames test result (in words, text)", "setting": "[1]", "result": "mutagenic in the presence and absence of S9 mix with WP2uvrA"}, {"measurement": "Tester strains showing positive (mutagenic activity in rev/mg)", "setting": "[9]; WP2uvrA +S9", "result": 38, "unit": "rev/mg"}, {"measurement": "Tester strains showing positive (mutagenic activity in rev/mg)", "setting": "[9]; WP2uvrA -S9", "result": 40, "unit": "rev/mg"}, {"measurement": "Ames test result", "setting": "[2]; TA100, TA98 (-S9) ref 14", "result": "Non-mutagenic"}]}
{"smiles": "c1ccc2ncncc2c1", "note": "[Quinazoline]", "values": [{"measurement": "Ames test result (in words, text)", "setting": "[1]", "result": "non-mutagenic"}]}
{"smiles": "c1cnc2ccncc2c1", "note": "[1,6-Naphthyridine]", "values": [{"measurement": "Ames test result (in words, text)", "setting": "[1]", "result": "not mutagenic"}]}
{"smiles": "c1ccc2nnccc2c1", "note": "[Cinnoline]", "values": [{"measurement": "Ames test result (in words, text)", "setting": "[1]", "result": "mutagenic in TA1537; also recorded: mutagenic only in the absence of the S9 mix"}, {"measurement": "Ames test result (in words, text)", "setting": "[1]; listed as cinnoline", "result": "mutagenic in the absence of S9 mix with TA1537"}, {"measurement": "Ames test", "setting": "[1]; quinoline analogues", "result": "+ (\"mutagenic (< 100 revertants/mg)\" in Ames test)"}, {"measurement": "Tester strains showing positive (mutagenic activity in rev/mg)", "setting": "[10]", "result": "TA1537 -S9 (13) rev/mg"}, {"measurement": "Tester strains showing positive (mutagenic activity in rev/mg)", "setting": "[10]; listed as cinnoline", "result": 13, "unit": "rev/mg"}]}
{"smiles": "c1cnc2cccnc2c1", "note": "[1,5-Naphthyridine]", "values": [{"measurement": "Ames test result (in words, text)", "setting": "[1]", "result": "only mutagenic in TA100; also recorded: mutagenic only in the presence of the S9 mix"}, {"measurement": "Ames test", "setting": "[1]; quinoline analogues", "result": "++ (\"mutagenic (100-1000 rev/mg)\" in Ames test)"}, {"measurement": "Tester strains showing positive (mutagenic activity in rev/mg)", "setting": "[4]; TA100 +S9", "result": "TA100 +S9 (419) rev/mg"}, {"measurement": "Tester strains showing positive (mutagenic activity in rev/mg)", "setting": "[4]; TA100 +S9, listed as 1,5-naphthyridine", "result": 419, "unit": "rev/mg"}]}
{"smiles": "c1cnc2ncccc2c1", "note": "[1,8-Naphthyridine]", "values": [{"measurement": "Ames test result (in words, text)", "setting": "[1]", "result": "only mutagenic in TA100; also recorded: mutagenic only in the presence of the S9 mix"}, {"measurement": "Ames test", "setting": "[1]; quinoline analogues", "result": "++ (\"mutagenic (100-1000 rev/mg)\" in Ames test)"}, {"measurement": "Tester strains showing positive (mutagenic activity in rev/mg)", "setting": "[4]; TA100 +S9", "result": "TA100 +S9 (170) rev/mg"}, {"measurement": "Tester strains showing positive (mutagenic activity in rev/mg)", "setting": "[4]; TA100 +S9, listed as 1,8-naphthyridine", "result": 170, "unit": "rev/mg"}]}
{"smiles": "c1cnc2cc[nH]c2c1", "note": "[4-Azaindole, 1H-Pyrrolo[3,2-b]pyridine]", "values": [{"measurement": "Ames test", "setting": "[1]; indole analogues", "result": "+ (\"mutagenic (< 100 revertants/mg)\" in Ames test)"}, {"measurement": "Ames test result (in words, text)", "setting": "[1]", "result": "mutagenic in the absence of S9 mix with TA1537"}]}
{"smiles": "c1ncc2[nH]ccc2n1", "note": "[5H-Pyrrolo[3,2-d]pyrimidine]", "values": [{"measurement": "Ames test result (in words, text)", "setting": "[1]", "result": "non-mutagenic"}]}
{"smiles": "c1ccc2cnncc2c1", "note": "[Phthalazine]", "values": [{"measurement": "Ames test result (in words, text)", "setting": "[1]", "result": "non-mutagenic"}, {"measurement": "Ames test result", "setting": "[2]; TA100, TA98 (± S9) ref 11", "result": "Non-mutagenic"}]}
{"smiles": "c1cc2ccncc2cn1", "note": "[2,7-Naphthyridine]", "values": [{"measurement": "Ames test result (in words, text)", "setting": "[1]", "result": "non-mutagenic"}]}
{"smiles": "c1ccc2cnccc2c1", "note": "[Isoquinoline]", "values": [{"measurement": "Ames test result (in words, text)", "setting": "[1]", "result": "non-mutagenic"}, {"measurement": "Ames test result", "setting": "[2]; TA100, TA98 (± S9) ref 10", "result": "Non-mutagenic"}]}
